Experimental data as given in the NIST ThermoML archive (doi:10.1021/acs.jced.7b01064).
± gives the expanded uncertainty stated by the source.

Tests used:
[1] = Liquid, Closed cell (Static) method
[2] = molar heat capacity at constant pressure; xn = mol fraction of the nth substance listed; details: 74.66 kPa, Liquid, DSC, x1 = 0.5
[3] = xn = mol fraction of the nth substance listed; details: 100 kPa, Liquid, x1 = 0.5; for viscosity: Concentric cylinders viscometry; for mass density: Vibrating tube method

CCCCO [butan-1-ol]
[1]
Details	vapor or sublimation pressure [kPa]
293.15 K	0.56 ± 0.06
298.15 K	0.84 ± 0.08
303.15 K	1.23 ± 0.12
308.15 K	1.76 ± 0.18
313.15 K	2.44 ± 0.24
318.15 K	3.33 ± 0.33
323.15 K	4.35 ± 0.44
328.15 K	5.33 ± 0.53

CCCCOC(=O)CC(O)(CC(=O)O)C(=O)OCCCC (configuration not stated) [2-hydroxy-1,2,3-propanetricarboxylic acid 1,2-dibutyl ester] + CCCCOC(=O)CC(O)(CC(=O)OCCCC)C(=O)O
Details	mass density [kg/m3]	molar heat capacity at constant pressure [J/K/mol]	viscosity [mPa·s]
[2], 321.5 K	–	712.66 ± 76	–
[2], 324.8 K	–	718.9 ± 76	–
[2], 328.2 K	–	724.78 ± 77	–
[2], 331.5 K	–	730.1 ± 77	–
[2], 334.8 K	–	734.82 ± 78	–
[2], 338.2 K	–	739.17 ± 78	–
[2], 341.5 K	–	743.58 ± 79	–
[2], 344.8 K	–	747.72 ± 79	–
[3], 298.15 K	1129.7 ± 57	–	3220 ± 200
[3], 303.15 K	1124.2 ± 57	–	2120 ± 140
[3], 313.15 K	1113.4 ± 56	–	1130 ± 110
